This is an account of results in patent US12128040B2, “Selective estrogen receptor degraders” (Eli Lilly and Company, priority 2018, dated 2024).

In the experiment the test system is ERα receptor. The experiment in a line: PRα induction assay in MCF7 cells (ERα agonism). Type of experiment: cell-based. To be noted: Homo sapiens, 24 hours, agonist mode, read-out: Relative IC50 (μM), PRα induction. The procedure: The purpose of the following PRα induction assay is to determine whether a test compound has agonistic activity against ERα receptor (an agonist would be expected to activate the receptor.)
Culture MCF7 (purchased from ATCC HTB-22) in DMEM media supplemented with 10% FBS, 0.01 mg/mL human insulin 1 and 1% penicillin/streptomycin antibiotics and plate the cells (prior to becoming 70% confluent) in 384-well flat-bottom plates at a density of 4,000 cells per well in 20 μL volume in DMEM phenol red free media containing 10% FBS (charcoal stripped). Incubate the cells overnight in a cell culture incubator (5% CO2, 95% relative humidity at 37° C.) and allow the cells to attach to the plate. The following day, dose the cells with test compound. Use an Echo 555 acoustic dispenser to prepare compound serial dilutions (1:3) in a range from 6 μM to 0.0003 μM. […]
The following day, wash cells with PBS 0.05% TWEEN® 20 (2×20 μL) and incubate with secondary antibody (20 μL/well) (1:1000 dilution, Goat anti-rabbit IgM ALEXA FLUOR™ 488) in PBS 1% BSA for 105 minutes at room temperature. […] Scan plates with ACUMEN EXPLORER™ [Laser-scanning fluorescence microplate cytometer manufactured by TTP LABTECH LTD] to measure progesterone receptor alpha. […]

The IC50 is the midpoint of a concentration-inhibition curve. `O=C(c1ccc(OCCN2CC(CF)C2)cc1)c1c(-c2ccc(C(F)(F)F)cc2F)cnc2cc(O)ccc12` [Example 1, (4-{2-[3-(Fluoromethyl)azetidin-1-yl]ethoxy}phenyl){3-[2-fluoro-4-(trifluoromethyl)phenyl]-7-hydroxyquinolin-4-yl}methanone]: the IC50 was > 2 µM.
